Test results from US9375411B2, “Uses and methods for the treatment of liver diseases or conditions” (Verlyx Pharma Inc., priority 2012, dated 2016).
“And” between values parts separate entries of the source, which are not always exact repeats. Identical values can stand only once. Like-named read-outs stand apart in the source and are kept apart here.

Columns and labels:
[1] = Repeat dose oral capsule or intravenous infusion pharmacokinetics in blood; format: in vivo, Male Beagle Dogs; details: Beagle dogs, 2-h IV 4 mg/kg/day, Day 1, individual animals and Mean
Experimental: (§1) Pharmacokinetics Study in Male Beagle Dogs. Three oral formulations were tested.
(§2) In this example, the pharmacokinetics and biodistribution are studied in Male Beagle Dogs. The Dog is a relevant model since the elimination rate from the different organs, mainly the liver, are closer to that observed in man. Three oral formulations were tested and compared to the injectable formulation: […]
(§3) The test item dosing formulation was administered once daily as a 2-hour intravenous infusion via the saphenous and/or cephalic vein using an infusion pump, using a temporary peripheral vein catheter attached to a syringe, for 2 consecutive days. The dose volume was 4 mL/kg and the infusion rate was 2 mL/kg/hour for all animals. The actual volume administered to each animal was calculated and adjusted based on the most recent practical body weight of each animal. The catheter was flushed with 0.9% Sodium Chloride for Injection, USP (saline) in order to ensure that the whole intended dose was administered to the animals, after which the temporary catheter was removed and discarded.
(§4) The test item was administered twice daily (targeted time: 12 hours apart) by oral capsule administration for 3 consecutive days to fasted animals (at least 4 hours prior to dosing). Food was returned 2 hours post-dose.
(§5) The number of capsules to be administered to each animal was fixed to 2 capsules/animals/occasion. If needed, following dosing, the oral cavity was rinsed with an appropriate volume of reverse osmosis water to facilitate swallowing. The oral cavity was inspected following dosing to ensure that the capsules have been swallowed.

[2] = Repeat dose oral capsule or intravenous infusion, tissue concentrations and ratios; format: in vivo, Male Beagle Dogs; details: Beagle dogs; for Kp / Tmax / AUC(0-t) / Cmax: male, dog
Experimental: as §1, §2, §3, §4, §5
The following tables present the different Pharmacokinetic parameters for IV and PO groups, the concentrations of pentamidine in different tissues and the tissue to blood and tissue to liver concentration ratios.

[3] = tested on: GalN/LPS fulminant liver injury; experiment: GalN/LPS fulminant liver injury model; format: in vivo; details: mice; for Serum ALT / Serum ALT levels reduced relative to PBS vehicle: 6.5 hours
Experimental: To evaluate the anti-inflammatory, anti-TNFα and hepato-protective properties of PENTAMIDINE, a Galactosamine/Liposaccharide (GalN/LPS) fulminant liver injury model was used.
Three independent experiments on mice untreated or pretreated with vehicle, compound PENTAMIDINE (isethionate salt) at doses of 25 and 40 mg/kg. PENTAMIDINE is dosed IP 30-minutes prior to the co-treatment with subtoxic doses of hepatotoxin GalN and immune stimulant LPS. Mice were sacrificed at 6.5 hours after GalN/LPS for analysis. The analysis of alanine transaminase (ALT) serum levels and histological observations allow the evaluation of the hepato-protective, anti-TNF-α, anti-inflammatory and/or anti-fibrotic activity.
To evaluate the anti-inflammatory, anti-TNFα and hepatoprotective properties of different pentamidine salt such as pentamidine bis-HCl (penta-HCL) and pentamidine tosylate (penta-Tos), a Galactosamine/Liposaccharide (GalN/LPS) fulminant liver injury model was used.
Pentamidine HCl and Tosylate were dosed IP 30-minutes prior to the co-treatment with subtoxic doses of hepatotoxin GalN and immune stimulant LPS. Mice were sacrificed at 6.5 hours after GalN/LPS for analysis. The analysis of alanine transaminase (ALT) serum levels and histological observations allow the evaluation of the hepato-protective, anti-TNF-α, anti-inflammatory and/or anti-fibrotic activity. Results

[4] = Oral bioavailability and biodistribution of pentamidine salts
Experimental: In this experiment, HCl, isethionate and tosylate salts of pentamidine were administered orally to mice and their PK and tissue accumulations were compared.
PK parameters for pentamidine salt following oral administration of 200 mg/kg in mice.
Biodistribution of Pentamidine Salts in mice, 24 hours after PO administration of 200 mg/kg.

[5] = mice, PO 50 mg/kg
[6] = tested on: chemokines interleukin (IL)-8, GRO alpha and MCP-1; details: human whole blood, cited from earlier work
in vivo = details: male, Beagle, dog, liver, iv, 4 mg/kg/day
[7] = male, Beagle, dog, iv, 4 mg/kg/day
[8] = intravenous dosing, individual animals 1001-1006 and Mean
[9] = summary (group mean), Group 1 IV, Groups 2-4 oral capsules
[10] = IP 25 mg/kg 30 minutes prior to GalN/LPS
[11] = IP 40 mg/kg 30 minutes prior to GalN/LPS
[12] = mice, 24 hours after PO 200 mg/kg, listed as Penta-Ise, 200 mg/kg
[13] = mice, oral 200 mg/kg, blood, listed as Isethionate salt, 200 mg/kg

With `N=C(N)c1ccc(OCCCCCOc2ccc(C(=N)N)cc2)cc1` [pentamidine, pentamidine bis(2-hydroxyethanesulfonate)] the “AUC % Extrap” value ([1]; 4 mg/kg/day) was 22.12% and 18.04% and 19.13% and 48.74% and 43.8% and 19.89%, the AUCINF ([1]; 4 mg/kg/day) was 24.54 µmol·h/L and 35.82 µmol·h/L and 9.09 µmol·h/L and 20.95 µmol·h/L and 35.1 µmol·h/L and 17.89 µmol·h/L and the AUClast ([1]; 4 mg/kg/day) was 19.11 µmol·h/L and 29.35 µmol·h/L and 7.35 µmol·h/L and 10.74 µmol·h/L and 19.73 µmol·h/L and 14.33 µmol·h/L. The CL ([1]; 4 mg/kg/day) was 0.48 L/h/kg and 0.33 L/h/kg and 1.29 L/h/kg and 0.56 L/h/kg and 0.34 L/h/kg and 0.66 L/h/kg, the Cmax ([1]; 4 mg/kg/day) was 2200 nM and 2160 nM and 1740 nM and 1220 nM and the MRTlast ([1]; 4 mg/kg/day) was 45.29 h and 65.59 h and 6.36 h and 18.84 h and 30.73 h and 38.14 h. The Tlast ([1]; 4 mg/kg/day) was 120 h and 168 h and 24 h and 48 h and 72 h and 96 h, the Tmax ([1]; 4 mg/kg/day) was 2 h and the Vz ([1]; 4 mg/kg/day) was 26.52 L/kg and 18.59 L/kg and 22.93 L/kg and 32.19 L/kg and 33.41 L/kg. The t1/2 ([1]; 4 mg/kg/day) was 35.23 h, the Cmax [1, 7] was 1430 nM and the half-life [1, 7] was 2820 min. It also gave a Tmax ([1]; male, Beagle, dog, iv, 4 mg/kg/day, read-out: Tmax) of 1 h, a Vd ([1]; male, Beagle, dog, iv, 4 mg/kg/day, read-out: Vz) of 32.5 L/kg and a Cmax ([1]; male, dog) of 1040 nM. The “Liver AUClast” value ([2]; IV dosing, Day 1) was 27072 µM·h, the “Liver Cmax” value ([2]; IV dosing, Day 1) was 210 µmol/L and the “Lung AUClast” value ([2]; IV dosing, Day 1) was 1807.2 µmol·h/L. For the same molecule, the “Lung Cmax” value ([2]; IV dosing, Day 1) was 13.4 µmol/L, the “Tissue-to-Liver Lung, based on AUC” value ([2]; IV, *Based on AUC) was 6.67* % and the “Tissue-to-Liver Muscle, based on AUC” value ([2]; IV, *Based on AUC) was 2.9* %. The “Tissue-to-Liver Skin, based on AUC” value ([2]; IV, *Based on AUC) was 0.87* %, the “Concentration Blood” value [2, 8] was 0.16 μmol/L and 0.07 μmol/L and 0.08 μmol/L (2×) and 0.121 μmol/L and 0.25 μmol/L and the “Concentration Brain” value [2, 8] was 0.80 μmol/L (3×) and 0.70 μmol/L and 0.90 μmol/L and 0.50 μmol/L. The “Concentration Heart” value [2, 8] was 22.30 µmol/L and 13.90 µmol/L and 15.80 µmol/L and 20.20 µmol/L and 10.10 µmol/L and 14.20 µmol/L, the “Concentration Kidney” value [2, 8] was 53.10 µmol/L and 38.30 µmol/L and 48.70 µmol/L and 55.80 µmol/L and 44.80 µmol/L and 39.70 µmol/L and the “Concentration Liver” value [2, 8] was 208 µmol/L and 174 µmol/L and 168 µmol/L and 210 µmol/L and 125 µmol/L and 159 µmol/L. For the same molecule, the “Concentration Lung” value [2, 8] was 11.56 µmol/L and 11.52 µmol/L and 13.39 µmol/L and 10.48 µmol/L and 9.80 µmol/L and 11.80 µmol/L, the “Concentration Muscle” value [2, 8] was 5.28 µmol/L and 4.98 µmol/L and 5.29 µmol/L and 6.11 µmol/L and 2.82 µmol/L and 5.56 µmol/L and the “Concentration Pancreas” value [2, 8] was 8.50 µmol/L and 6.00 µmol/L and 8.00 µmol/L and 8.20 µmol/L and 4.60 µmol/L and 7.10 µmol/L. The “Concentration Skin” value [2, 8] was 1.45 μmol/L and 1.23 μmol/L and 1.41 μmol/L and 1.80 μmol/L and 1.63 μmol/L (2×), the “Tissue-to-Liver Brain” value [2, 9] was 0.46% and the “Tissue-to-Liver Heart” value [2, 9] was 9.66%. For the same molecule, the “Tissue-to-Liver Kidney” value [2, 9] was 28.4%, the “Tissue-to-Liver Lung” value [2, 9] was 6.74% and the “Tissue-to-Liver Muscle” value [2, 9] was 2.9%. For the same molecule, the “Tissue-to-Liver Pancreas” value [2, 9] was 4.34%, the “Tissue-to-Liver Skin” value [2, 9] was 0.91% and the Kp ([2]; Beagle, brain/blood, intravenous, summary (group mean), Group 1 IV, Groups 2-4 oral capsules, read-out: Tissue-to-blood ratio Brain) was 6.19. The Kp ([2]; Beagle, heart/blood, intravenous, summary (group mean), Group 1 IV, Groups 2-4 oral capsules, read-out: Tissue-to-blood ratio Heart) was 133, the Kp ([2]; Beagle, kidney/blood, intravenous, summary (group mean), Group 1 IV, Groups 2-4 oral capsules, read-out: Tissue-to-blood ratio Kidney) was 386 and the Kp ([2]; Beagle, liver/blood, intravenous, summary (group mean), Group 1 IV, Groups 2-4 oral capsules, read-out: Tissue-to-blood ratio Liver) was 1690. It also gave a Kp ([2]; Beagle, liver/blood, iv, 4 mg/kg/day, IV, *Based on AUC, read-out: Tissue-to-blood ratio Liver, based on AUC) of 922, a Kp ([2]; Beagle, lung/blood, intravenous, summary (group mean), Group 1 IV, Groups 2-4 oral capsules, read-out: Tissue-to-blood ratio Lung) of 111 and a Kp ([2]; Beagle, lung/blood, iv, 4 mg/kg/day, IV, *Based on AUC, read-out: Tissue-to-blood ratio Lung, based on AUC) of 61.6. For the same molecule, the Kp ([2]; Beagle, muscle/blood, intravenous, summary (group mean), Group 1 IV, Groups 2-4 oral capsules, read-out: Tissue-to-blood ratio Muscle) was 48.7, the Kp ([2]; Beagle, muscle/blood, iv, 4 mg/kg/day, IV, *Based on AUC, read-out: Tissue-to-blood ratio Muscle, based on AUC) was 8.01 and the Kp ([2]; Beagle, pancreas/blood, intravenous, summary (group mean), Group 1 IV, Groups 2-4 oral capsules, read-out: Tissue-to-blood ratio Pancreas) was 58.4. For the same molecule, the Kp ([2]; Beagle, skin/blood, intravenous, summary (group mean), Group 1 IV, Groups 2-4 oral capsules, read-out: Tissue-to-blood ratio Skin) was 14.4, the Kp ([2]; Beagle, skin/blood, iv, 4 mg/kg/day, IV, *Based on AUC, read-out: Tissue-to-blood ratio Skin, based on AUC) was 26.8 and the Kp ([2]; beagle, brain / blood, iv, intravenous dosing, individual animals and mean, read-out: Tissue-to-blood ratio Brain) was 4.13. It also gave a Kp ([2]; beagle, kidney / blood, iv, intravenous dosing, individual animals and mean, read-out: Tissue-to-blood ratio Kidney) of 370, a Kp ([2]; beagle, pancreas / blood, iv, intravenous dosing, individual animals and mean, read-out: Tissue-to-blood ratio Pancreas) of 38 and a Tmax ([2]; liver, 4 mg/kg/day, IV dosing, Day 1, read-out: Liver Tmax) of 168 h. For the same molecule, the Tmax ([2]; lung, 4 mg/kg/day, IV dosing, Day 1, read-out: Lung Tmax) was 120 h, the AUC(0-t) ([2]; muscle, 4 mg/kg/day, IV dosing, Day 1, read-out: Muscle AUClast) was 786 µM·h and the Cmax ([2]; muscle, 4 mg/kg/day, IV dosing, Day 1, read-out: Muscle Cmax) was 6.1 µM. It also gave a Tmax ([2]; muscle, 4 mg/kg/day, IV dosing, Day 1, read-out: Muscle Tmax) of 168 h, an AUC(0-t) ([2]; skin, 4 mg/kg/day, IV dosing, Day 1, read-out: Skin AUClast) of 235 µM·h and a Cmax ([2]; skin, 4 mg/kg/day, IV dosing, Day 1, read-out: Skin Cmax) of 1.8 µM. The Tmax ([2]; skin, 4 mg/kg/day, IV dosing, Day 1, read-out: Skin Tmax) was 168 h, the “Numbers of TUNEL-positive cells per high power field in the livers” value ([3]; GalN/LPS, P<0.0002 as compared to PBS+GalN/LPS) was “significantly decreased” and the “Serum ALT” value [3, 10] was 402+/−105. For the same molecule, the “Serum ALT levels reduced relative to PBS vehicle” value [3, 10] was 93%, the “Serum ALT” value [3, 11] was 177+/−44 and the “Serum ALT levels reduced relative to PBS vehicle” value [3, 11] was 97%. For the same molecule, the “Tissue Concentration Kidney” value [4, 12] was 5.0 µM, the “Tissue Concentration Liver” value [4, 12] was 5.6 µM and the “Tissue Concentration Lung” value [4, 12] was 2.7 µM. For the same molecule, the “Tissue Concentration Pancreas” value [4, 12] was 1.3 µM, the “F*” value ([4]; mice, oral 200 mg/kg, based on the iv AUC at 5 mg/kg of 19.08, listed as Isethionate salt) was 3.0 and the AUCINF [4, 13] was 23.0 µM·h. The Cl/F [4, 13] was 15.3 L/kg/h, the Cmax [4, 13] was 3.06 µM and the MRT [4, 13] was 52.8 h. It also gave a Tmax [4, 13] of 3.33 h, a t½ [4, 13] of 44.5 h and an AUC ([4]; mouse, in vivo, iv, 5 mg/kg) of 19.1 µM·h. For the same molecule, the “Liver and kidney levels after PO administration versus blood” value [5] was “several folds that of blood”, the “muscle concentration after PO administration versus blood” value [5] was “several folds the concentration found in blood” and the “PHA-induced generation of IL-6” value ([6]; 10 microM) was “partial inhibition”. For the same molecule, the “PHA-induced generation of TNF-alpha, IL-1 beta, IL-2, IL-4, IL-5, IL-10 and IFN-gamma” value ([6]; 10 microM) was “no significant inhibitory effect”, the “LPS- and PHA-stimulated whole blood generation of chemokines IL-8, GRO alpha, MCP-1” value [6] was “dose-dependently suppress” and the half-life (in vivo) was about 28 days.
